Data as given in ChEMBL document CHEMBL5537193, “Multitargeting HDAC Inhibitors Containing a RAS/RAF Protein Interfering Unit” (J Med Chem, 2024).

Legend:
[1] = Toxicity in BALB/c nude mouse xenografted with human HT-29 cells assessed as change in lung histopathology at 10 to 15 mg/kg, ip administered once daily for 24 days by H&E staining based analysis; assay type: organism-based; conditions: in vivo, 576 h, dose 10-15 mg/kg, time 24 day
[2] = test system: Mus musculus; experiment: In vivo inhibition of MAPK signaling pathway in BALB/c mouse xenografted with human HT-29 cells assessed as inhibition of MEK phosphorylation administered intraperitoneally once every 2 days for 12 times and measured after 24 days by Western blot analysis; assay type: functional; conditions: dose 7.5-15 mg/kg, route ip, time 24.0 day

COc1cc(OC)c(/C=C/S(=O)(=O)Cc2ccc(OC)c(NCC(=O)NO)c2)c(OC)c1
Activity [1]: Non-Toxic | inhibition [2]: Dose-Dependent Effect
